Assay [1] concerns Caco-2. In words: Anticancer activity against human Caco-2 cells assessed as absence of normal spindle shape incubated at 0.11 uM for 72 hrs by phase contrast inverted microscopic analysis. The assay is classed as functional, cell-based.
The test system of assay [2] is MCF7. In words: Anticancer activity against human MCF7 cells assessed as smaller cells incubated at 0.11 uM for 72 hrs by phase contrast inverted microscopic analysis. The assay is classed as functional, cell-based.
Assay [3] deals with MCF7. In words: Anticancer activity against human MCF7 cells assessed as round cells incubated at 0.11 uM for 72 hrs by phase contrast inverted microscopic analysis. The assay is classed as functional, cell-based.
The subject of assay [4] is HeLa. The assay is described as follows: Anticancer activity against human HeLa cells assessed as absence of normal spindle shape incubated at 0.11 uM for 72 hrs by phase contrast inverted microscopic analysis. The assay is classed as functional, cell-based.
Assay [5] relates to HepG2. The assay is described as follows: Anticancer activity against human HepG2 cells assessed as losing contact with neighbouring cells incubated at 0.11 uM for 72 hrs by phase contrast inverted microscopic analysis. The assay is classed as functional, cell-based.
The test system of assay [6] is Caco-2. In words: Induction of apoptosis in human Caco-2 cells assessed as early apoptotic cells incubated at 0.11 uM for 72 hrs by annexin V-FITC based propidium iodide dual staining assay (reference value: 0.07%). The assay is classed as functional.
The test system of assay [7] is MCF7. In words: Induction of apoptosis in human MCF7 cells assessed as early apoptotic cells incubated at 0.11 uM for 72 hrs by annexin V-FITC based propidium iodide dual staining assay (reference value: 0.06%). The assay is classed as functional.
Assay [8] deals with HeLa. The assay is described as follows: Induction of apoptosis in human HeLa cells assessed as viable cells incubated at 0.11 uM for 72 hrs by annexin V-FITC based propidium iodide dual staining assay (reference value: 97.23%). The assay is classed as functional. The note with it: read-out: Activity.
Assay [9] has as its system HepG2. In words: Induction of apoptosis in human HepG2 cells assessed as total apoptotic cells incubated at 0.11 uM for 72 hrs by annexin V-FITC based propidium iodide dual staining assay (reference value: 0.99 +/- 0.02%). The assay is classed as functional.
Assay [10] deals with MCF7. In words: Induction of apoptosis in human MCF7 cells assessed as late apoptotic cells by measuring orange to red patch incubated at 0.11 uM for 72 hrs by acridine orange-ethidium bromide dual staining based fluorescence microscopic analysis. The assay is classed as functional, cell-based.
Assay [11] relates to HepG2. The assay is described as follows: Induction of apoptosis in human HepG2 cells assessed as late apoptotic cells by measuring orange to red patch incubated at 0.11 uM for 72 hrs by acridine orange-ethidium bromide dual staining based fluorescence microscopic analysis. The assay is classed as functional, cell-based.
Assay [12] deals with dsDNA. In words: Induction of damage in dsDNA (unknown origin) assessed as disrupted by DNA by measuring decrease in fluorescence intensity at 100 uM by EvaGreen based fluorescence plate reader analysis. The assay is classed as nucleic-acid assay. The note with it: time <= 160.0 min, TDE = time-dependent effect.
Assay [13] has as its system Caco-2. In words: Induction of apoptosis in human Caco-2 cells assessed as viable cells incubated at 0.017 uM for 72 hrs by annexin V-FITC based propidium iodide dual staining assay (reference value: 99.89%). The assay is classed as functional. The conditions noted are these: read-out: Activity.
The test system of assay [14] is MCF7. In words: Induction of apoptosis in human MCF7 cells assessed as early apoptotic cells incubated at 0.017 uM for 72 hrs by annexin V-FITC based propidium iodide dual staining assay (reference value: 0.06%). The assay is classed as functional.
Assay [15] concerns MCF7. In words: Induction of apoptosis in human MCF7 cells assessed as late apoptotic cells incubated at 0.017 uM for 72 hrs by annexin V-FITC based propidium iodide dual staining assay (reference value: 0.01%). The assay is classed as functional.
The subject of assay [16] is HepG2. In words: Induction of apoptosis in human HepG2 cells assessed as early apoptotic cells incubated at 0.017 uM for 72 hrs by annexin V-FITC based propidium iodide dual staining assay (reference value: 1.74%). The assay is classed as functional.
Assay [17] concerns HepG2. In words: Induction of apoptosis in human HepG2 cells assessed as late apoptotic cells incubated at 0.017 uM for 72 hrs by annexin V-FITC based propidium iodide dual staining assay (reference value: 0.66%). The assay is classed as functional.
Assay [18] deals with Caco-2. In words: Anticancer activity against human Caco-2 cells assessed as cell shrinkage incubated at 0.098uM for 72 hrs by phase contrast inverted microscopic analysis. The assay is classed as functional, cell-based.
Assay [19] has as its system Caco-2. The assay is described as follows: Anticancer activity against human Caco-2 cells assessed as absence of normal spindle shape incubated at 0.098uM for 72 hrs by phase contrast inverted microscopic analysis. The assay is classed as functional, cell-based.
For assay [20], the system named is MCF7. In words: Anticancer activity against human MCF7 cells assessed as cell shrinkage incubated at 0.098uM for 72 hrs by phase contrast inverted microscopic analysis. The assay is classed as functional, cell-based.
For assay [21], the system named is HeLa. In words: Anticancer activity against human HeLa cells assessed as smaller cells incubated at 0.098uM for 72 hrs by phase contrast inverted microscopic analysis. The assay is classed as functional, cell-based.
The subject of assay [22] is HepG2. In words: Anticancer activity against human HepG2 cells assessed as cell shrinkage incubated at 0.098uM for 72 hrs by phase contrast inverted microscopic analysis. The assay is classed as functional, cell-based.
The test system of assay [23] is Caco-2. The assay is described as follows: Induction of apoptosis in human Caco-2 cells assessed as viable cells incubated at 0.098 uM for 72 hrs by annexin V-FITC based propidium iodide dual staining assay (reference value: 99.89%). The assay is classed as functional. The note with it: read-out: Activity.
The subject of assay [24] is MCF7. In words: Induction of apoptosis in human MCF7 cells assessed as viable cells incubated at 0.098 uM for 72 hrs by annexin V-FITC based propidium iodide dual staining assay (reference value: 99.9%). The note with it: read-out: Activity. The assay is classed as functional.
Assay [25] relates to MCF7. In words: Induction of apoptosis in human MCF7 cells assessed as late apoptotic cells incubated at 0.098 uM for 72 hrs by annexin V-FITC based propidium iodide dual staining assay (reference value: 0.01%). The assay is classed as functional.
Assay [26] deals with HeLa. The assay is described as follows: Induction of apoptosis in human HeLa cells assessed as late apoptotic cells incubated at 0.098 uM for 72 hrs by annexin V-FITC based propidium iodide dual staining assay (reference value: 0%). The assay is classed as functional.
In assay [27] the test system is HepG2. In words: Induction of apoptosis in human HepG2 cells assessed as early apoptotic cells incubated at 0.098 uM for 72 hrs by annexin V-FITC based propidium iodide dual staining assay (reference value: 1.74%). The assay is classed as functional.
For assay [28], the system named is Caco-2. In words: Induction of apoptosis in human Caco-2 cells assessed as early apoptotic cells by measuring bright green patch incubated at 0.098 uM for 72 hrs by acridine orange-ethidium bromide dual staining based fluorescence microscopic analysis. The assay is classed as functional, cell-based.
Assay [29] deals with HeLa. In words: Induction of apoptosis in human HeLa cells assessed as caspase3/7 activation at 0.098 uM using caspase-glo 3/7 as substrate relative to control. The assay is classed as functional.
For assay [30], the system named is Caco-2. In words: Anticancer activity against human Caco-2 cells assessed as smaller cells incubated at 0.097uM for 72 hrs by phase contrast inverted microscopic analysis. The assay is classed as functional, cell-based.
In assay [31] the test system is Caco-2. The assay is described as follows: Anticancer activity against human Caco-2 cells assessed as losing contact with neighbouring cells incubated at 0.097uM for 72 hrs by phase contrast inverted microscopic analysis. The assay is classed as functional, cell-based.
The test system of assay [32] is MCF7. The assay is described as follows: Anticancer activity against human MCF7 cells assessed as cell shrinkage incubated at 0.097uM for 72 hrs by phase contrast inverted microscopic analysis. The assay is classed as functional, cell-based.
Assay [33] relates to Caco-2. In words: Induction of apoptosis in human Caco-2 cells assessed as late apoptotic cells incubated at 0.097 uM for 72 hrs by annexin V-FITC based propidium iodide dual staining assay (reference value: 0.02%). The assay is classed as functional.
Assay [34] has as its system HeLa. In words: Induction of apoptosis in human HeLa cells assessed as early apoptotic cells incubated at 0.097 uM for 72 hrs by annexin V-FITC based propidium iodide dual staining assay (reference value: 2.77%). The assay is classed as functional.
In assay [35] the test system is Caco-2. The assay is described as follows: Induction of apoptosis in human Caco-2 cells assessed as total apoptotic cells incubated at 0.097 uM for 72 hrs by annexin V-FITC based propidium iodide dual staining assay (reference value: 0.04 +/- 0.005%). The assay is classed as functional.
In assay [36] the test system is Caco-2. The assay is described as follows: Induction of apoptosis in human Caco-2 cells assessed as caspase3/7 activation at 0.097 uM using caspase-glo 3/7 as substrate relative to control. The assay is classed as functional.

The structures appear in SMILES notation. Active and inactive are the calls of the source. No cut-off for these calls is given here.

Consider `C#CCN1C(=O)CN(/N=C/c2ccc([N+](=O)[O-])o2)C1=O`, for which the outcome in [1], in assay [2], in assay [3], in assay [4], in assay [5] and in assay [10] was Active. For the same compound, the result in assay [11] was Active. Moreover, the Activity in assay [6] is 4.84%; in assay [7], 7.55%; in assay [9], 63.15%; in assay [12], “Tde”. For the same compound, the viability at 0.11 µM in assay [8] was determined as 66.4%.

As for `O=c1[nH]cc(F)c(=O)[nH]1` [FLUOROURACIL], the viability at 0.017 µM in [13] turned out to be 89.7%. Further, the Activity in [14] was 6.16%; in assay [15], 2.26%; in assay [16], 7.69%; in assay [17] it was 2.34%.

Take `O=C(CN1C(=O)CN(/N=C/c2ccc([N+](=O)[O-])o2)C1=O)c1ccc(Cl)cc1`: the result in assay [18], in assay [19], in [20], in [21], in [22] and in assay [28] was Active. Further, the viability at 0.098 µM worked out at 60.6% in [23] and 63.6% in assay [24]. Further, the Activity stood at 38.55% in assay [25], 62.92% in [26], 6.31% in assay [27] and 75% in assay [29].

As to `NS(=O)(=O)c1ccc(-n2cc(CN3C(=O)CN(/N=C/c4ccc([N+](=O)[O-])o4)C3=O)nn2)cc1`, the outcome in [30], in [31] and in assay [32] was Active. Moreover, the Activity is 22.46% in assay [33], 17.31% in assay [34], 36.26% in assay [35] and 58% in [36].

Values taken from ChEMBL document CHEMBL5380816, “Inclusion of Nitrofurantoin into the Realm of Cancer Chemotherapy via Biology-Oriented Synthesis and Drug Repurposing” (J Med Chem, 2023).
